Data as given in patent publication US7071212B2, “N-(4-carbamimidoyl-phenyl)-glycine derivatives” (Hoffmann-La Roche Inc., priority 1998, dated 2006).

system: not given; assay: not given; conditions: not given

SMILES | melting point [°C]
CCOc1ccc(OCCOC)c(C(Nc2ccc(C(=N)N)cc2)C(=O)O)c1 (racemic) [Example 46.4, (RS)-(4-carbamimidoyl-phenylamino)-[5-ethoxy-2-(2-methoxy-ethoxy)-phenyl]-acetic acid] | 275
CCCc1cc(C)c(OCCO)c(C(Nc2ccc(C(=N)N)cc2)C(=O)O)c1 (racemic) [Example 58.5, (RS)-(4-carbamimidoyl-phenylamino)-[2-(2-hydroxy-ethoxy)-3-methyl-5-propyl-phenyl]-acetic acid] | 230
C=CCc1cc(C)cc(C(Nc2ccc(C(=N)N)cc2)C(=O)O)c1OCCO (racemic) [Example 57.4, (RS)-[3-allyl-2-(2-hydroxy-ethoxy)-5-methyl-phenyl]-(4-carbamimidoyl-phenylamino)-acetic acid] | 228
N=C(N)c1ccc(NC(C(=O)O)c2ccccc2OCC(=O)O)cc1 (racemic) [Example 40.3, (RS)-(4-carbamimidoyl-phenylamino)-(2-carboxymethoxy-phenyl)-acetic acid] | 223
N=C(N)c1ccc(NC(C(=O)O)c2cccc(OCc3ccccc3)c2)cc1 (racemic) [Example 39.4, (RS)-(3-benzyloxy-phenyl)-(4-carbamimidoyl-phenylamino)-acetic acid] | 306
CCOc1ccc(OCC(N)=O)c(C(Nc2ccc(C(=N)N)cc2)C(=O)O)c1 (racemic) [Example 48.5, (RS)-(4-carbamimidoyl-phenylamino)-(2-carbamoylmethoxy-5-ethoxy-phenyl)-acetic acid] | 266
COc1ccc(OC)c(C(Nc2ccc(C(=N)N)cc2)C(=O)O)c1 (racemic) [Example 41.4, (RS)-(4-carbamimidoyl-phenylamino)-(2,5-dimethoxy-phenyl)-acetic acid] | 310
COc1ccc(OCC(=O)O)c(C(Nc2ccc(C(=N)N)cc2)C(=O)O)c1 (racemic) [Example 43.4, (RS)-(4-carbamimidoyl-phenylamino)-(2-carboxymethoxy-5-methoxy-phenyl)-acetic acid] | 213
CCCc1cc(C)cc(C(Nc2ccc(C(=N)N)cc2)C(=O)O)c1OCCO (racemic) [Example 56.5, (RS)-(4-carbamimidoyl-phenylamino)-[2-(2-hydroxy-ethoxy)-5-methyl-3-propyl-phenyl]-acetic acid] | 240
CCOc1ccc(OCCCCC(=O)O)c(C(Nc2ccc(C(=N)N)cc2)C(=O)O)c1 (racemic) [Example 45.4, (RS)-5-{2-[(4-carbamimidoyl-phenylamino)-carboxy-methyl]-4-ethoxy-phenoxy}-pentanoic acid] | 260
[H]/N=C(\NO)c1ccc(NC(C(=O)OC)c2cc(OC)c(OC)cc2OCc2cccc(C(=O)OC)c2)cc1 (racemic) [Example 52.3, methyl (Z)-(RS)-3-(2-{[4-(N-hydroxycarbamimidoyl)-phenylamino]-methoxycarbonyl-methyl}-4,5-dimethoxy-phenoxymethyl)-benzoate] | 173

molecular target: T1, factor VIIa/tissue factor complex (Homo sapiens, UniProt P08709); assay: inhibition of the amidolytic activity of factor VIIa/tissue factor complex (chromogenic peptide substrate); assay type: biochemical; conditions: 26 nM tissue factor, 9 nM soluble factor VIIa, 8 mM calcium chloride, substrate Chromozym-tPA, pH 7.5, room temperature
T1 construct: 9 nM of soluble factor VIIa
T1 sequence (P08709 213-466 limits assumed): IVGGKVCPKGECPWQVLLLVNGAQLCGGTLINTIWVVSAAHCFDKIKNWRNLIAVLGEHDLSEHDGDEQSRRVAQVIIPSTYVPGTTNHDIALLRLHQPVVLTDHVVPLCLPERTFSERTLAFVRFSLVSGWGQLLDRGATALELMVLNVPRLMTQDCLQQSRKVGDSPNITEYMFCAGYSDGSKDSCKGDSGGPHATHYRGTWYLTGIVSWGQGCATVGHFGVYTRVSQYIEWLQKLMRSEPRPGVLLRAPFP
T1 sequence (P08709 61-212 partner limits assumed): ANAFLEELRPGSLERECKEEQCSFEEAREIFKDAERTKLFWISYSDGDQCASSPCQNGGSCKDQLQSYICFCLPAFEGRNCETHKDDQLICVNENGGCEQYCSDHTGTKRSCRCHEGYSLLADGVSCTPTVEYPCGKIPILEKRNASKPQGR
T1 sequence (P13726 33-295 partner): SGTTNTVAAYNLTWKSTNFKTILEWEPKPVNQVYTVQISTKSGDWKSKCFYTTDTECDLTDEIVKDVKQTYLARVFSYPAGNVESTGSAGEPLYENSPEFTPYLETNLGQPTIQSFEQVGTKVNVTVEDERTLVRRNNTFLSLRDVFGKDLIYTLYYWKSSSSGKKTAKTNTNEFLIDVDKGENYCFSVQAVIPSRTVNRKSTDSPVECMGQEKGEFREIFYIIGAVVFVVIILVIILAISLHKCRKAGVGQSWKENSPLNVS
Description: The measurements were carried out on microtitre plates at room temperature. To this end, 100 μl of a solution of 26 nM of tissue factor, 9 nM of soluble factor VIIa and 8 mM of calcium chloride were added to 25 μl of a solution of the inhibitor in a buffer [pH 7.5, 100 mM, comprising 0.14M NaCl, 0.1M N-(2-hydroxyethyl)piperazine-N′-(2-ethanesulphonic acid) (HEPES), 0.5 mg/l of fatty-acid-free BSA (bovine serum albumin) and 0.05% NaN3] in each well of the plate. After an incubation time of 15 minutes the reaction was started by the addition of 50 μl of chromogenic substrate Chromozym-tPA (3.5 mM, MeSO2-D-Phe-Gly-Arg-paranitroanilide) and the hydrolysis of the substrate was followed spectrophotometrically on a kinetic microtitre plate reader over 10 minutes. Using the plot of the inhibition curves, the Ki values were determined according to the method described in Biochem. J. 55, 1953, 170–171. The results will be evident from the following Table (Ki in μM/l): […]

SMILES | Ki [nM]
COc1cc(OCC(=O)O)c(C(Nc2ccc(C(=N)N)cc2)C(=O)O)cc1OC (racemic) [Example 17, (RS)-(4-carbamimidoyl-phenylamino)-(2-carboxymethoxy-4,5-dimethoxy-phenyl)-acetic acid] | 38.5
COc1cc(OC)c(OCC(=O)O)c(C(Nc2ccc(C(=N)N)cc2)C(=O)O)c1 (racemic) [Example 15, (RS)-(4-carbamimidoyl-phenylamino)-(2-carboxymethoxy-3,5-dimethoxy-phenyl)-acetic acid] | 84
